We go through 3 compounds from paper PMC4754968 (Clinical genitourinary cancer, 2014).

For data set [1], the system named is metastatic RCC. To be noted: metastatic RCC previously treated with VEGFR tyrosine kinase inhibitor; ref [6]; cited from earlier work.
The conditions of data set [2]: human, in vivo, 30 mg.
Data set [3] in a line: Everolimus single-dose pharmacokinetics. Format: in vivo, patients. To be noted: for AUCinf % extrapolated: single dose everolimus 30 mg.
The conditions of data set [4]: cited from earlier work.
The conditions of data set [5]: cited from earlier work. The source holds these as a separate data set.
Data set [6] relates to metastatic RCC. To be noted: front line metastatic RCC setting; ref [1],[2]; cited from earlier work.
Data set [7] can be described thus: Sunitinib multiple-dose pharmacokinetics. Format: in vivo, patients. To be noted: for AUC / CL/F / Cmax / half-life: human, oral; for AUC / CL/F / Cmax / half-life / Cmin / Tmin: plasma, multiple dose (dose 14), sunitinib 50 mg daily with everolimus 30 mg weekly; for AUC: AUCtau, dosing interval 24 hours; for CL/F: dose/AUCtau.

Each structure is given as a SMILES string.

One may read the Tmax as the time at which the peak concentration occurs. One may read the AUC(0-inf) as the area under the concentration-time curve extrapolated to infinity. The low end stands for low exposure, the high end for high exposure. The term CL/F denotes clearance divided by bioavailability, as obtained after extravascular dosing. By Cmax is commonly meant the highest concentration seen after dosing. By half-life is commonly meant how long it takes for the measured level to halve. By bioavailability is commonly meant the share of a dose that reaches the circulation, judged against a reference dose that is usually intravenous. Take `CO[C@H]1C[C@@H]2CC[C@@H](C)[C@@](O)(O2)C(=O)C(=O)N2CCCC[C@H]2C(=O)O[C@H]([C@H](C)C[C@@H]2CC[C@@H](OCCO)[C@H](OC)C2)CC(=O)[C@H](C)/C=C(\C)[C@@H](O)[C@@H](OC)C(=O)[C@H](C)C[C@H](C)/C=C/C=C/C=C/1C` [Everolimus]: in the data set on metastatic RCC [1], the “progression-free survival (PFS) over placebo” value is “significant improvement”. The “AUCtau relative to AUCinf after the first dose” value in data set [2] was “almost double”. Also, the Tmax in data set [3] (human, plasma, po) worked out at 2 h. For the same compound, the AUC(0-inf) in data set [3] (human, plasma, po, AUCinf, subject 1002, after first oral dose of everolimus 30 mg, with sunitinib 50 mg daily, plasma) is 1.55 µg·h/mL. The CL/F in data set [3] (human, plasma, po, CL/F, subject 1002, after first oral dose of everolimus 30 mg, with sunitinib 50 mg daily, plasma) is 0.201 L/h/kg. Besides, the peak level in data set [3] (human, plasma, po, Cmax, subject 1002, after first oral dose of everolimus 30 mg, with sunitinib 50 mg daily, plasma) (Cmax) was 0.0823 µg/mL. In data set [3] (human, plasma, po, t1/2, subject 1002, after first oral dose of everolimus 30 mg, with sunitinib 50 mg daily, plasma), this compound showed a half-life of 25.7 h. For the same compound, the figures for the AUCinf % extrapolated in data set [3] (subject 1002) and in data set [3] (subject 1003) were 48.7% and 35.2%, respectively. Moreover, the eliminated in bile in data set [4] is listed as 98%. In addition, in data set [5], the bioavailability is given as 16%.

Broadly, the AUC is concentration integrated over time. The low end stands for less exposure, the high end for more exposure. Take `CCN(CC)CCNC(=O)c1c(C)[nH]c(/C=C2\C(=O)Nc3ccc(F)cc32)c1C` [Sunitinib, Sunitinib malate]: in the data set on metastatic RCC [6], the “progression free survival (PFS)” value is on record as “less than a year”. In data set [7] (subject 1001), this compound showed an AUC of 1.86 µg·h/mL, a CL/F of 0.428 L/h/kg, a Cmax of 0.0831 µg/mL and a Cmin of 0.0594 µg/mL. In addition, in data set [7] (subject 1001), the Tmin was 2 h. In data set [7] (subject 1002), this compound had an AUC of 2.77 µg·h/mL, a CL/F of 0.187 L/h/kg, a Cmax of 0.142 µg/mL and a Cmin of 0.0803 µg/mL. In addition, the Tmin in data set [7] (subject 1002) turned out to be 0 h. For the same compound, in data set [7] (subject 1003), the AUC is 2.3 µg·h/mL, the CL/F is 0.32 L/h/kg and the peak concentration (Cmax) amounted to 0.106 µg/mL. Further, the half-life in data set [7] (t1/2, subject 1002) is 33 h. For the same compound, the half-life in data set [7] (t1/2, subject 1003) is 85.5 h. Besides, the “AUCtau compared with sunitinib monotherapy” value in data set [7] (same dose of sunitinib (50 mg/d), compared with Faivre, et al) is “substantially higher”.

As for `Cc1ccc(Nc2nccc(N(C)c3ccc4c(C)n(C)nc4c3)n2)cc1S(N)(=O)=O` [pazopanib], the “progression free survival (PFS)” value in the data set on metastatic RCC [6] was “less than a year”.
